Laboratory results published in patent US9845330B2, “6-nitro-2,3-dihydroimidazo[2,1-b]oxazoles and a process for the preparation thereof” (priority 2013, dated 2017).
Converted amounts (≈) assume the structure as drawn.

Assays:
[1] = test system: M. tuberculosis MDR (resistant to isoniazid and rifampicin); test: microbe, parasite or virus in culture; assay type: cell-based; details: Mycobacterium tuberculosis, 504 h, read-out: MIC M. tb MDR
[2] = test system: M. tuberculosis XDR (resistant to isoniazid, rifampicin, amikacin and moxifloxacin); test: microbe, parasite or virus in culture; assay type: cell-based; details: Mycobacterium tuberculosis, 504 h, read-out: MIC M. tb XDR

| Structure (SMILES) | MIC [1] [µg/mL] | MIC [2] [µg/mL] |
| --- | --- | --- |
| CC(C)c1ccc(OCc2cn(-c3cccc(OC[C@@]4(C)Cn5cc([N+](=O)[O-])nc5O4)c3)nn2)cc1 [IA38] | 4 (≈ 8.15 µM) | 4 (≈ 8.15 µM) |
| C[C@]1(COc2ccccc2-n2cc(COc3ccc(OC(F)(F)F)cc3)nn2)Cn2cc([N+](=O)[O-])nc2O1 [IA39] | 1 (≈ 1.88 µM) | 1 (≈ 1.88 µM) |
| C[C@]1(COc2ccccc2-n2cc(COc3ccc(F)cc3)nn2)Cn2cc([N+](=O)[O-])nc2O1 [IA40] | 4 (≈ 8.58 µM) | 4 (≈ 8.58 µM) |
| C[C@]1(COc2ccccc2-n2cc(COc3ccc(C(F)(F)F)cc3)nn2)Cn2cc([N+](=O)[O-])nc2O1 [IA41] | 2 (≈ 3.87 µM) | 2 (≈ 3.87 µM) |
| C[C@]1(COc2ccccc2-n2cc(COc3ccccc3F)nn2)Cn2cc([N+](=O)[O-])nc2O1 [IA42] | 2 (≈ 4.29 µM) | 2 (≈ 4.29 µM) |
| C[C@]1(COc2ccc(-n3nnnc3-c3ccccc3)cc2)Cn2cc([N+](=O)[O-])nc2O1 [IB1, (R)-2-{4-[5-phenyl-1H-tetrazol-1-yl]phenoxymethyl}-2,3-dihydro-2-methyl-6-nitroimidazo[2,1-b]oxazole] | 2 (≈ 4.77 µM) | 2 (≈ 4.77 µM) |
| C[C@]1(COc2ccc(-n3nnnc3-c3ccc(OC(F)(F)F)cc3)cc2)Cn2cc([N+](=O)[O-])nc2O1 [IB2, (R)-2-{4-[5-(4-trifluoromethoxyphenyl)-1H-tetrazol-1-yl]phenoxymethyl}-2,3-dihydro-2-methyl-6-nitroimidazo[2,1-b]oxazole] | 2 (≈ 3.97 µM) | 2 (≈ 3.97 µM) |
| Cc1ccc(-c2nnnn2-c2ccc(OC[C@@]3(C)Cn4cc([N+](=O)[O-])nc4O3)cc2)cc1 [IB3, (R)-2-{4-[5-(4-methylphenyl)-1H-tetrazol-1-yl]phenoxymethyl}-2,3-dihydro-2-methyl-6-nitroimidazo[2,1-b]oxazole] | 4 (≈ 9.23 µM) | 4 (≈ 9.23 µM) |
| C[C@]1(COc2ccc(-n3nnnc3-c3ccc(F)cc3)cc2)Cn2cc([N+](=O)[O-])nc2O1 [IB4, (R)-2-{4-[5-(4-fluorophenyl)-1H-tetrazol-1-yl]phenoxymethyl}-2,3-dihydro-2-methyl-6-nitroimidazo[2,1-b]oxazole] | 4 (≈ 9.15 µM) | 4 (≈ 9.15 µM) |
| C[C@]1(COc2ccc(-n3nnnc3-c3ccc(C(F)(F)F)cc3)cc2)Cn2cc([N+](=O)[O-])nc2O1 [IB5, (R)-2-{4-[5-(4-trifluoromethylphenyl)-1H-tetrazol-1-yl]phenoxymethyl}-2,3-dihydro-2-methyl-6-nitroimidazo[2,1-b]oxazole] | 1 (≈ 2.05 µM) | 1 (≈ 2.05 µM) |
| CCc1ccc(-c2nnnn2-c2ccc(OC[C@@]3(C)Cn4cc([N+](=O)[O-])nc4O3)cc2)cc1 [IB6, (R)-2-{4-[5-(4-ethylphenyl)-1H-tetrazol-1-yl]phenoxymethyl}-2,3-dihydro-2-methyl-6-nitroimidazo[2,1-b]oxazole] | 2 (≈ 4.47 µM) | 2 (≈ 4.47 µM) |
| C[C@]1(COc2ccc(-n3nnnc3Oc3ccc(F)cc3)cc2)Cn2cc([N+](=O)[O-])nc2O1 [IB7, (R)-2-{4-[5-(4-fluorophenoxy)-1H-tetrazol-1-yl]phenoxymethyl}-2,3-dihydro-2-methyl-6-nitroimidazo[2,1-b]oxazole] | 2 (≈ 4.41 µM) | 2 (≈ 4.41 µM) |
| C[C@]1(COc2ccc(-n3nnnc3Oc3ccc(C(F)(F)F)cc3)cc2)Cn2cc([N+](=O)[O-])nc2O1 [IB8, (R)-2-{4-[5-(4-trifluoromethylphenoxy)-1H-tetrazol-1-yl]phenoxymethyl}-2,3-dihydro-2-methyl-6-nitroimidazo[2,1-b]oxazole] | 4 (≈ 7.95 µM) | 4 (≈ 7.95 µM) |
| Cc1ccc(Oc2nnnn2-c2ccc(OC[C@@]3(C)Cn4cc([N+](=O)[O-])nc4O3)cc2)cc1 [IB9, (R)-2-{4-[5-(4-methylphenoxy)-1H-tetrazol-1-yl]phenoxymethyl}-2,3-dihydro-2-methyl-6-nitroimidazo[2,1-b]oxazole] | 4 (≈ 8.9 µM) | 4 (≈ 8.9 µM) |
| C[C@]1(COc2ccc(-n3nnnc3Oc3ccc(OC(F)(F)F)cc3)cc2)Cn2cc([N+](=O)[O-])nc2O1 [IB10, (R)-2-{4-[5-(4-trifluoromethoxyphenoxy)-1H-tetrazol-1-yl]phenoxymethyl}-2,3-dihydro-2-methyl-6-nitroimidazo[2,1-b]oxazole] | 1 (≈ 1.93 µM) | 1 (≈ 1.93 µM) |
| C[C@]1(COc2ccc(-c3cc(-c4ccccc4)on3)cc2)Cn2cc([N+](=O)[O-])nc2O1 [IC1, (R)-2-{4-[5-phenylisoxazol-3-yl]phenoxymethyl}-2,3-dihydro-2-methyl-6-nitroimidazo[2,1-b]oxazole] | 0.12 (≈ 0.287 µM) | 0.12 (≈ 0.287 µM) |
| CCc1ccc(-c2cc(-c3ccc(OC[C@@]4(C)Cn5cc([N+](=O)[O-])nc5O4)cc3)no2)cc1 [IC2, (R)-2-{4-[5-(4-ethylphenyl)isoxazol-3-yl]phenoxymethyl}-2,3-dihydro-2-methyl-6-nitroimidazo[2,1-b]oxazole] | 2 (≈ 4.48 µM) | 2 (≈ 4.48 µM) |
| C[C@]1(COc2ccc(-c3cc(-c4ccc(F)cc4F)on3)cc2)Cn2cc([N+](=O)[O-])nc2O1 [IC3, (R)-2-{4-[5-(2,4-difluorophenyl)isoxazol-3-yl]phenoxymethyl}-2,3-dihydro-2-methyl-6-nitroimidazo[2,1-b]oxazole] | 0.25 (≈ 0.55 µM) | 0.25 (≈ 0.55 µM) |
| C[C@]1(COc2ccc(-c3cc(-c4ccccc4F)on3)cc2)Cn2cc([N+](=O)[O-])nc2O1 [IC4, (R)-2-{4-[5-(2-fluorophenyl)isoxazol-3-yl]phenoxymethyl}-2,3-dihydro-2-methyl-6-nitroimidazo[2,1-b]oxazole] | 2 (≈ 4.58 µM) | 2 (≈ 4.58 µM) |
| C[C@]1(COc2ccc(-c3cc(-c4ccc(C(F)(F)F)cc4)on3)cc2)Cn2cc([N+](=O)[O-])nc2O1 [IC5, (R)-2-{4-[5-(4-trifluoromethylphenyl)isoxazol-3-yl]phenoxymethyl}-2,3-dihydro-2-methyl-6-nitroimidazo[2,1-b]oxazole] | 1 (≈ 2.06 µM) | 1 (≈ 2.06 µM) |
| Cc1ccc(-c2cc(-c3ccc(OC[C@@]4(C)Cn5cc([N+](=O)[O-])nc5O4)cc3)no2)cc1 [IC6, (R)-2-{4-[5-(4-methylphenyl)isoxazol-3-yl]phenoxymethyl}-2,3-dihydro-2-methyl-6-nitroimidazo[2,1-b]oxazole] | 1 (≈ 2.31 µM) | 1 (≈ 2.31 µM) |
| COc1ccc(-c2cc(-c3ccc(OC[C@@]4(C)Cn5cc([N+](=O)[O-])nc5O4)cc3)no2)cc1 [IC7, (R)-2-{4-[5-(4-methoxyphenyl)isoxazol-3-yl]phenoxymethyl}-2,3-dihydro-2-methyl-6-nitroimidazo[2,1-b]oxazole] | 1 (≈ 2.23 µM) | 1 (≈ 2.23 µM) |
| C[C@]1(COc2ccc(-c3cc(-c4cccc(F)c4)on3)cc2)Cn2cc([N+](=O)[O-])nc2O1 [IC8, (R)-2-{4-[5-(3-fluorophenyl)isoxazol-3-yl]phenoxymethyl}-2,3-dihydro-2-methyl-6-nitroimidazo[2,1-b]oxazole] | 2 (≈ 4.58 µM) | 2 (≈ 4.58 µM) |
| C[C@]1(COc2ccc(-c3cc(-c4ccccn4)on3)cc2)Cn2cc([N+](=O)[O-])nc2O1 [IC9, (R)-2-{4-[5-(pyridin-2-yl)isoxazol-3-yl]phenoxymethyl}-2,3-dihydro-2-methyl-6-nitroimidazo[2,1-b]oxazole] | 2 (≈ 4.77 µM) | 2 (≈ 4.77 µM) |
| C[C@]1(COc2ccc(-c3cc(-c4ccc(OC(F)(F)F)cc4)on3)cc2)Cn2cc([N+](=O)[O-])nc2O1 [IC10, (R)-2-{4-[5-(4-trifluoromethoxyphenyl)isoxazol-3-yl]phenoxymethyl}-2,3-dihydro-2-methyl-6-nitroimidazo[2,1-b]oxazole] | 0.5 (≈ 0.995 µM) | 0.5 (≈ 0.995 µM) |
